Experimental data taken from PMC3694633, “Functional evolution of scorpion venom peptides with an inhibitor cystine knot fold” (Bioscience Reports, 2013).
Bridge positions count the residues as written; N and C are the ends. Ends that are not written are not given here. Peptide text beside a SMILES is read from it.

Key:
rKv1.1 = target: T1, rKv1.1 (Rattus norvegicus, UniProt P10499); assay: two-electrode voltage-clamp, rKv1.1 in Xenopus oocytes; type: cell-based
T1 construct: expressed in transfected cells; host or cells: Xenopus oocytes injected with cRNA (clone in pGEM, T7 promoter)
T1 sequence (P10499 whole entry): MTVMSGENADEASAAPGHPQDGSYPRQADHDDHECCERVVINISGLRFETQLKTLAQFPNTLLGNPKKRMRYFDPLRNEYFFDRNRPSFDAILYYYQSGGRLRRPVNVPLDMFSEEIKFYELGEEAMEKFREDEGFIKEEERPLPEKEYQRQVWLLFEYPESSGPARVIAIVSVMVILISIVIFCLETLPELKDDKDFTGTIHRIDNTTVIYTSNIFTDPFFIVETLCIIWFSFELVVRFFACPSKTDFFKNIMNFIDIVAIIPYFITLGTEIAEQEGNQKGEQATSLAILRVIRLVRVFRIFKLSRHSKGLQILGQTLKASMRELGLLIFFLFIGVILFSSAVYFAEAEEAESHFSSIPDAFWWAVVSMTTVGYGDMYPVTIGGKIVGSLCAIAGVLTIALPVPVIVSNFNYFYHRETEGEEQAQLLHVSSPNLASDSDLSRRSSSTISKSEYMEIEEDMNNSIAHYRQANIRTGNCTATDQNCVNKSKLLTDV
Protocol: (§1) For the expression of Kv channels (rKv1.1–rKv1.4 and Shaker IR) and Nav channels (rNav1.1, rNav1.2, rNav1.4, rNav1.5 and mNav1.6) in Xenopus oocytes, the linearized plasmids were transcribed with the T7 or SP6 mMESSAGE-mMACHINE transcription kits (Supplementary Table S2, available at http://www.bioscirep.org/bsr/033/bsr033e047add.htm). Oocytes were digested for 1–2 h at room temperature in Ca^2+-free ND96 (in mM: NaCl, 96; KCl, 2; […]; MgCl2, 2 and Hepes, 5, adjusted to pH 7.4 with NaOH) containing 0.5 mg/ml collagenase (type I, sigma). Oocytes were injected with 0.5 ng of cRNA by NANOLITER 2000 (World Precision Instruments Inc.). The oocytes were incubated in ND96 solution supplemented with 50 mg/l gentamycin sulfate at 18°C.
(§2) Ion channel currents were recorded 1–3 days after injection with Oocyte Clamp OC-725C (Warner Instument Corp.) and Digidata 1440A (Axon CNS, Molecular Devices) controlled by pCLAMP10 software (Axon). […] All data were recorded from at least three independent oocytes (n≥3) and are presented as mean±S.E.. […] Data were analysed by pCLAMP 10 (Molecular Devices) and SigmaPlot 10.0 (Systat Software).

mice = conditions: intracerebroventricular inoculation; cited from earlier work
Protocol: It has been reported that the lethality of MCa on mice after intracerebroventricular inoculation (LD50=20 μg/mouse); however, the molecular basis remains unsolved so far.

[1] = stability to non-enzymatic hydrolysis during oxidative refolding; type: physicochemical; conditions: 0.1 M Tris–HCl pH 8.0, 0.5 mM peptide, 25°C, 48 h; for chemical stability (non-enzymatic hydrolysis, Val35–Gly36 peptide bond): RP-HPLC / MALDI-TOF-MS
Protocol: λ-MK1 and λ-MK1a in their reduced form were chemically synthesized by ChinaPeptides Co., Ltd. and Scilight-Peptide Inc., respectively. For oxidative refolding, peptide samples were dissolved in 0.1 M Tris–HCl buffer (pH 8.0) to a final concentration of 0.5 mM and incubated at 25°C for 48 h. Peptides were purified by RP-HPLC (reversed-phase HPLC). Purity and molecular masses of peptides were determined by MALDI-TOF-MS on a Kratos PC Axima CFR plus (Shimadzu Co. LTD).

[2] = target: T2, Drosophila Shaker channel (Shaker IR) (Drosophila melanogaster, UniProt P08510, DEL6-46); assay: two-electrode voltage-clamp, Shaker channel in Xenopus oocytes; type: cell-based; conditions: for activity on the Shaker channel after C-terminal modification: Figure 6 modified peptides at 10 μM, n=3, GP deletion: results not shown
T2 construct: expressed in transfected cells; host or cells: Xenopus oocytes injected with cRNA (clone in pBluescript, T7 promoter)
T2 sequence (P08510 with tags, fused parts or gaps DEL6-46): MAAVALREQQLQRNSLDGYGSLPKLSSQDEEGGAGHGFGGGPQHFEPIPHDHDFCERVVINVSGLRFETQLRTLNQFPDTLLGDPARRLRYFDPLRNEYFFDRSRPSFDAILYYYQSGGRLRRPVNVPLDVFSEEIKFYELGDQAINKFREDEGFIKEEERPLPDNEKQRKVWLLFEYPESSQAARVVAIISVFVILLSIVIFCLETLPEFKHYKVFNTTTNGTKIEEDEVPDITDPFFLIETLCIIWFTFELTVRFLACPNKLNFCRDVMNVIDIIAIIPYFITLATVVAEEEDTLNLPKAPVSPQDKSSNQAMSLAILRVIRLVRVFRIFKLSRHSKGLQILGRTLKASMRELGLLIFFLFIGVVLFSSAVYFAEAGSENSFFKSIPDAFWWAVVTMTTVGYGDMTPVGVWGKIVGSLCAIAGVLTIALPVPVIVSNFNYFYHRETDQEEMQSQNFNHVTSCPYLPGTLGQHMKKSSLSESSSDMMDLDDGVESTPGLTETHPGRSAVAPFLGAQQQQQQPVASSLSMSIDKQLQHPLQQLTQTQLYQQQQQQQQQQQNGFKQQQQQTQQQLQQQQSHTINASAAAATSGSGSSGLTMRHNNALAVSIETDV
Protocol: as §1
Ion channel currents were recorded 1–3 days after injection with Oocyte Clamp OC-725C (Warner Instument Corp.) and Digidata 1440A (Axon CNS, Molecular Devices) controlled by pCLAMP10 software (Axon). Pipettes were pulled by P-97 FLAMING/BROWN Micropipette Puller (Sutter Instrument Co.) with resistance of 0.1–1.0 MΩ when filled with 3 M KCl. rKv1.1–rKv1.4 and Shaker currents were evoked by 250 ms depolarization to 0 mV followed by a 250 ms pulse to −50 mV, from a holding potential of −90 mV. rNav1.1, 1.2, 1.4, 1.5 and mNav1.6 currents were evoked by 100 ms depolarization to −10 mV from a holding potential of −90 mV. All data were recorded from at least three independent oocytes (n≥3) and are presented as mean±S.E.. Leak subtraction was carried out with a P/4 protocol. Data were analysed by pCLAMP 10 (Molecular Devices) and SigmaPlot 10.0 (Systat Software).

[3] = system: sarcoplasmic reticulum Ca^2+ release channels/ryanodine receptors of skeletal and cardiac muscles; conditions: cited from earlier work
Excerpt: The ICK fold is an exceptionally stable structural motif comprising an embedded ring formed by two disulfide bridges (Cys^1–Cys^4 and Cys^2–Cys^5) and their connecting backbone segments, which is threaded by a third disulfide bridge (Cys^3–Cys^6).

Na^+ channel = system: Na^+ channel; design: method as in PMID 21665957; conditions: cited from earlier work
[4] = system: apamin-sensitive SKCa channels; conditions: cited from earlier work
Excerpt: This is further strengthened by the evolutionary conservation of these two residues in all the members of λ-KTx subgroup. To further investigate the functional significance of this region, we carried out C-terminal amidation, a common post-translational modification for many toxins from venoms of scorpions, spiders and cone snails. The amidated peptide (named λ-MK1a) was oxi ...

rKv1.2 = assay: two-electrode voltage-clamp, rKv1.2 in Xenopus oocytes; type: cell-based; conditions: 10 μM, 250 ms depolarization to 0 mV from −90 mV, mean±S.E. (n=3)
Protocol: as §1, §2

rKv1.3 = assay: two-electrode voltage-clamp, rKv1.3 in Xenopus oocytes; type: cell-based; conditions: 10 μM, 250 ms depolarization to 0 mV from −90 mV, mean±S.E. (n=3)
Protocol: as §1, §2

rKv1.4 = assay: two-electrode voltage-clamp, rKv1.4 in Xenopus oocytes; type: cell-based; conditions: 10 μM, 250 ms depolarization to 0 mV from −90 mV, mean±S.E. (n=3)
Protocol: as §1, §2

[5] = target: rKv1.1 (not stated (printed rKv1.1, called mammalian; r read as rat)) (UniProt P10499)
Sequence of rKv1.1 (not stated (printed rKv1.1, called mammalian; r read as rat)) (P10499 whole entry): as the sequence (P10499 whole entry) above

[6] = target: Drosophila Shaker K+ channel (Shaker IR) (Drosophila) (UniProt P08510)
Sequence of Drosophila Shaker K+ channel (Shaker IR) (Drosophila) (P08510 whole entry): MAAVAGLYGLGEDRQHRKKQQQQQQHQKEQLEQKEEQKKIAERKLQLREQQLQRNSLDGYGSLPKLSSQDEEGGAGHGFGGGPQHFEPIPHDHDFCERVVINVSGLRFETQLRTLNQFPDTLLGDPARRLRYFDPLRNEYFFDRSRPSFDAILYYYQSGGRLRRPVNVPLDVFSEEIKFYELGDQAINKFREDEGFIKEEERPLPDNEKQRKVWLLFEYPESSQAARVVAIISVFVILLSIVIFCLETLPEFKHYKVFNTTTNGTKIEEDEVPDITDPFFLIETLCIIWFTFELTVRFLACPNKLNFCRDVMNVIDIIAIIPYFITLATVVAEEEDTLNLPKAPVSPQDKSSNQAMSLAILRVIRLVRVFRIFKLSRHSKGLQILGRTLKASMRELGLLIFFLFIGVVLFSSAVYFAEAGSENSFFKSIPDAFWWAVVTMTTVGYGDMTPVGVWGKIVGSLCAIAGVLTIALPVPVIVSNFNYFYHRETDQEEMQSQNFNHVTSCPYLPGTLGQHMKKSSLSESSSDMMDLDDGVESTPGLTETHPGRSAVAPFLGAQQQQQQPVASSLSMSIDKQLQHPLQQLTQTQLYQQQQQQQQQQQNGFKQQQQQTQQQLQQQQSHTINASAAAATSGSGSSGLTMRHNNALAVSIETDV

[7] = target: rKv1.4 (not stated (printed rKv1.4, called mammalian; r read as rat)) (UniProt P15385)
Sequence of rKv1.4 (not stated (printed rKv1.4, called mammalian; r read as rat)) (P15385 whole entry): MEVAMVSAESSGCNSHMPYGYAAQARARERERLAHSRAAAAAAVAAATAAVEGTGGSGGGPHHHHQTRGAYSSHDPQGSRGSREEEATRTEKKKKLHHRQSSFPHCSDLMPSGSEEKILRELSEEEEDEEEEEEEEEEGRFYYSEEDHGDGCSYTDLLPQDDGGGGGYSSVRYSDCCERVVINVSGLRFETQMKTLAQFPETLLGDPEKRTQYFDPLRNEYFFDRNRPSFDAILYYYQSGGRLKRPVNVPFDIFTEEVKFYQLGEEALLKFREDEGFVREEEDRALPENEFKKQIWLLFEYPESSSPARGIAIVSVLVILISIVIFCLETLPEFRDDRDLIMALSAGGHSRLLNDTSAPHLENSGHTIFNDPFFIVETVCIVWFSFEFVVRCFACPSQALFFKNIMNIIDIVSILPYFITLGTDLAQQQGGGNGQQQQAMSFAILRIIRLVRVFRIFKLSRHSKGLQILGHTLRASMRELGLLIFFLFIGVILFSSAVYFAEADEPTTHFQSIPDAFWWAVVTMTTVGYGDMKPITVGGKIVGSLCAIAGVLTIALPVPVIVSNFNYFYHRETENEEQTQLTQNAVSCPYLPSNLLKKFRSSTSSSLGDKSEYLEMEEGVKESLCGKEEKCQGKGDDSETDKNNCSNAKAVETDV

[8] = target: rKv1.1 (not stated (printed rKv1.1, called mammalian; r read as rat)) (UniProt P10499); remark: listed apart in the source
[9] = target: rKv1.2 (not stated (printed rKv1.1-rKv1.4, called mammalian; r read as rat)) (UniProt P63142)
Sequence of rKv1.2 (not stated (printed rKv1.1-rKv1.4, called mammalian; r read as rat)) (P63142 whole entry): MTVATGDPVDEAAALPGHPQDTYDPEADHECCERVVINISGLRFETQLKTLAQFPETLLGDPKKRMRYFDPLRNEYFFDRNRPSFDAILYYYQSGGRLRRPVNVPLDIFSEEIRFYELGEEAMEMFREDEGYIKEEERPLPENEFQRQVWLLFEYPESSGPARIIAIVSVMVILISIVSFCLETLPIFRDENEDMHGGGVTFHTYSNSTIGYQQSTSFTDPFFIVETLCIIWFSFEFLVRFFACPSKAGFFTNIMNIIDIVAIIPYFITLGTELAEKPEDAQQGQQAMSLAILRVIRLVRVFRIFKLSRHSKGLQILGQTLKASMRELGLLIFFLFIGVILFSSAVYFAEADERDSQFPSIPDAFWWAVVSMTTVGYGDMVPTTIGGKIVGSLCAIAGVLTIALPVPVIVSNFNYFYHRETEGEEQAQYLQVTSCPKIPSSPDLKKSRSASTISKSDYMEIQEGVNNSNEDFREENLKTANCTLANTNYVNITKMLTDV

[10] = target: rKv1.3 (not stated (printed rKv1.1-rKv1.4, called mammalian; r read as rat)) (UniProt P15384)
Sequence of rKv1.3 (not stated (printed rKv1.1-rKv1.4, called mammalian; r read as rat)) (P15384 whole entry): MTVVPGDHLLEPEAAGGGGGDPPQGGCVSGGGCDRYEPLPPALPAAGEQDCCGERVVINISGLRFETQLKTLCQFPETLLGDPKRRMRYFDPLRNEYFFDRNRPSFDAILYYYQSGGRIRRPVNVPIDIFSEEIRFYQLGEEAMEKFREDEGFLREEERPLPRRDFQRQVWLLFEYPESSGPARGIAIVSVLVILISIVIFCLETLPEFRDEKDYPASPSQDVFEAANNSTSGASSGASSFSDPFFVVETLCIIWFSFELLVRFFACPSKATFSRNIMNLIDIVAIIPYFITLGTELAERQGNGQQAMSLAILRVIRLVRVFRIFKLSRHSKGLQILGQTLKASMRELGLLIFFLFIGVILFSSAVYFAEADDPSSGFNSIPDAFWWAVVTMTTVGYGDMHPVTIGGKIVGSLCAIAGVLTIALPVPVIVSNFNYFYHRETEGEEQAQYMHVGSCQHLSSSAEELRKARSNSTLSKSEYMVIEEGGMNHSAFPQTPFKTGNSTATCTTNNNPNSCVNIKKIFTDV

CC[C@H](C)[C@@H]1NC(=O)[C@H](CC(N)=O)NC(=O)[C@H]([C@@H](C)O)NC(=O)CNC(=O)[C@H](CCCNC(=N)N)NC(=O)[C@H](CCCNC(=N)N)NC(=O)[C@H](CCCCN)NC(=O)[C@@H]2CSSC[C@@H]3NC(=O)[C@H](CC(C)C)NC(=O)[C@H](CCCCN)NC(=O)[C@H](CC(C)C)NC(=O)[C@H](Cc4c[nH]cn4)NC(=O)[C@@H]4CCCN4C(=O)[C@H](CC(C)C)NC(=O)[C@@H](NC(=O)[C@H](CC(=O)O)NC(=O)CN)CSSC[C@H](NC(=O)[C@H](CSSC[C@@H](C(=O)N[C@@H](CCCNC(=N)N)C(=O)O)NC(=O)[C@H](CCCNC(=N)N)NC(=O)[C@H](CCCCN)NC(=O)[C@H](CCC(=O)O)NC1=O)NC(=O)[C@H](CC(=O)O)NC(=O)[C@H](CCCCN)NC(=O)[C@H](CC(N)=O)NC(=O)[C@H](CCC(=O)O)NC(=O)[C@H](CCCCN)NC3=O)C(=O)N[C@@H](CO)C(=O)N[C@@H](CCCCN)C(=O)N[C@@H](CCCCN)C(=O)N2 [MCa, reference compound] (H-GDCLPHLKLCKENKDCCSKKCKRRGTNIEKRCR-OH; disulfide 3-17, 10-21, 16-32)
IC50 (rKv1.1; dose-response, each point mean±S.E. (n=3), read-out: IC50, inhibition of rKv1.1 currents): 21.9 ± 1.04 µM
LD50 (mice): 20 μg/mouse

CC[C@H](C)[C@@H]1NC(=O)[C@@H]2CSSC[C@@H]3NC(=O)[C@H](CCCCN)NC(=O)[C@H](CCCCN)NC(=O)[C@H](CC(N)=O)NC(=O)[C@H](CC(C)C)NC(=O)[C@H](CCCNC(=N)N)NC(=O)[C@H](CC(N)=O)NC(=O)[C@@H](NC(=O)CN)CSSC[C@H](NC(=O)[C@H](CSSC[C@@H](C(=O)N[C@@H](CCCNC(=N)N)C(=O)N4CCC[C@H]4C(=O)N[C@@H](CC(=O)O)C(=O)N[C@H](C(=O)NCC(=O)N4CCC[C@H]4C(=O)O)C(C)C)NC(=O)[C@H](Cc4ccc(O)cc4)NC(=O)[C@H](Cc4ccc(O)cc4)NC(=O)[C@H](CC(N)=O)NC(=O)[C@H](C(C)C)NC(=O)CNC(=O)[C@H]([C@@H](C)O)NC(=O)[C@H](CO)NC1=O)NC(=O)[C@H](CC(=O)O)NC(=O)[C@H](C)NC(=O)[C@H](CC(=O)O)NC(=O)[C@H](CO)NC(=O)[C@H](CC(N)=O)NC3=O)C(=O)N[C@@H](CCCNC(=N)N)C(=O)N[C@@H](Cc1ccc(O)cc1)C(=O)NCC(=O)N[C@@H](CCC(=O)O)C(=O)N[C@@H](CCCNC(=N)N)C(=O)N2 [λ-MK1] (H-GCNRLNKKCNSDADCCRYGERCISTGVNYYCRPDVGP-OH; disulfide 2-16, 9-22, 15-31)
chemical stability (non-enzymatic hydrolysis, Val35–Gly36 peptide bond) [1]: instability of a peptide bond between Val^35 and Gly^36 in an alkaline environment
reduction of Shaker channel currents ([2]; 10 μM, Xenopus oocytes, 250 ms depolarization to 0 mV from −90 mV, mean±S.E. (n=3)): 44.7±10.2%
IC50 ([2]; dose-response fitted by Hill equation, each point mean±S.E. (n=3), read-out: peptide concentration at half-maximal efficacy (IC50), Shaker channel): 12.3 ± 0.96 µM

imperatoxin A (GDCLPHLKRCKADNDCCGKKCKRRGTNAEKRCR; UniProt P59868 1-33, looked up)
activation of Ca2+ release channels/ryanodine receptors [3]: activators of sarcoplasmic reticulum Ca^2+ release channels/ryanodine receptors of skeletal and cardiac muscles

jingzhaotoxin-III: tarantula toxin, an Na^+ channel blocker with an ICK fold (DGECGGFWWKCGRGKPPCCKGYACSKTWGWCAVEAP; also: ICK fold, disulfide pairing not given here; UniProt P62520 28-63, looked up)
Na+ channel block (Na^+ channel): Na^+ channel blocker

leiurotoxin I: a scorpion α-KTx (AFCNLRMCQLSCRSLGLLGKCIGDKCECVKH; ends and bridges not checked; cysteine pairing not given here; UniProt P16341 1-31, looked up)
effect of C-terminal amidation on affinity for apamin-sensitive SKCa channels [4]: increase the affinity

λ-MK1a: the amidated peptide of λ-MK1, three disulfide bridges (GCNRLNKKCNSDADCCRYGERCISTGVNYYCRPDFGP-NH2; disulfide (positions not given here))
current reduction of rKv1.2 (rKv1.2): 25.3±3.6%
current reduction of rKv1.1 (rKv1.1; 10 μM, 250 ms depolarization to 0 mV from −90 mV, mean±S.E. (n=3)): 7.7±1.8%
current reduction of rKv1.3 (rKv1.3): 9.0±3.2%
chemical stability (non-enzymatic hydrolysis, Val35–Gly36 peptide bond) [1]: completely inhibited the non-enzymatic hydrolysis of the peptide
refolding efficiency ([1]; RP-HPLC, relative to λ-MK1): largely improved its refolding efficiency
current reduction of rKv1.4 (rKv1.4): 35.7±4.26%
activity on the Shaker channel after C-terminal modification ([2]; Xenopus oocytes): switched the target of λ-MK1 from the Shaker channel to mammalian Kv channels
activity on the Shaker channel after C-terminal modification ([2]; Xenopus oocytes, listed as C-terminal amidation): loss of activity on the Shaker channel

B1: maurocalcine (peptide)
chain: GDCLPHLKLCKENKDCCSKKCKRRGTNIEKRCR
IC50 of inhibition of rKv1.1 currents, dose-response, two-electrode voltage clamp in Xenopus oocytes [5]: 21.9 µM

B2: λ-MeuKTx-1 (peptide)
chain: GCNRLNKKCNSDADCCRYGERCISTGVNYYCRPDFGP
reduction of Shaker channel currents at 10 μM peptide, two-electrode voltage clamp in Xenopus oocytes [6]: 44.7%

B3: λ-MK1a (peptide)
chain: GCNRLNKKCNSDADCCRYGERCISTGVNYYCRPDFGP-NH2
modifications: disulfide (positions not given here); not fully specified (bridges); ends not checked; also: three disulfide bridges, pairing not given here
reduction of rKv1.4 currents at 10 μM peptide, two-electrode voltage clamp in Xenopus oocytes [7]: 35.7%
reduction of rKv1.1 currents at 10 μM peptide, two-electrode voltage clamp in Xenopus oocytes [8]: 7.7%
reduction of rKv1.2 currents at 10 μM peptide, two-electrode voltage clamp in Xenopus oocytes [9]: 25.3%
reduction of rKv1.3 currents at 10 μM peptide, two-electrode voltage clamp in Xenopus oocytes [10]: 9%
